7 compounds from patent US9926529B2, “Derivation of neural stem cells and dopaminergic neurons from human pluripotent stem cells” (International Stem Cell Corporation, priority 2012, dated 2018) can be followed below.

Counter-ions that a name gives are not always drawn. Like-named read-outs stand apart in the source and are kept apart here.

Test [1] concerns hPSC-NSCs. The test can be described thus: RT-PCR expression of dopamine neuron genes in hPSC-NSCs treated with small molecule hits. It counts as cell-based, human. Conditions: for fold induction at 2.5 µM: Homo sapiens, Neuron, 336 h. The procedure: (§1) The method specifically involved treating both hESC-H9-NSCs (Invitrogen) and hPSC-NSCs with Purmorphamine (2 μM) and FGF8 (100 ng/mL) in NB medium [NeuroBasal medium, 1× GlutaMAX, 1× N2/B27 Supplement (Invitrogen)] for 7 days. After 7 days of Purmorphamine and FGF8 treatment, the NSCs were dissociated with Accutase (Sigma) and plated 20,000 cells/mL into Matrigel coated 96 well plates and treated with small molecule library (Torcris 1120 Biologically Active Compounds) at 2.5 μM final concentration for two weeks (FIG. 6A). Two weeks after treatment with small molecules, all wells were visually observed and scored based on neurite density and dopamine release. For measuring neurite density, cells were fixed with 4% paraformaldehyde and phase contrast images were acquired using Cellavista Cell Imaging System (Roche Applied Science) from randomly selected fields. Neurite density was measured using the Cellavista density software image processing program. Each experimental condition was done in duplicate wells, and at least three independent experiments were conducted to acquire the final results.
(§2) Conditioned medium from the top neurite inducers (Table 1) (wells containing the highest density of neurites compare to control 0.1% DMSO treated) were collected and analyzed using a dopamine ELISA assay (Cosmo Bio). Conditioned medium was collected from samples containing 50,000 cells per well and centrifuged at 3000 RPM to remove cell debris. Supernatant was then collected and analyzed for quantitative determination of dopamine using a commercial dopamine ELISA assay kit (CusaCosmo Bio). Data analysis was performed using the microtiter plate reader (BIO-TEK Synergy 2). The results presented are from three independent experiments (n=3) and represented as mean±standard error of mean (s.e.m.) and statistical analysis was performed using the two-tailed Student's t-test with a confidence level of 95% (α=0.05) with statistical significance of P<0.05. Additionally, total RNA from each well were collected and analyze by RT-PCR for expression of TuJ1, MAP2, TH, GRK2, EN1, DAT, AADC, PAX2, NURR1, PITX3 and LMX1B from hPSC-NSCs (Table 2). […] Analysis of the ELISA data indicated the top small molecule neurite inducers produced higher levels of dopamine than control non-treated cells (1.5 ng/mL). […] The percentages of TH positive cells produced by chemical treatment with Kenpaullone (33%), Guggulsterone (35%), Kynurenic Acid (19%), Immedthridine Dihydrobromide (21%), and Dimaprit Dihydrochloride (18%) were higher than 15% of TH positive cells obtained from hPSC-NSCs differentiated for ≥1 month using a standard dopaminergic differentiation medium (BDNF 20 ng/mL, GDNF 20 ng/mL, cAMP 200 μM, Abscorbic Acid 200 μM, TGFβ3 2 ng/mL and DAPT).
Total RNA from at least triplicate samples with around 1 million cells each was isolated using either QIAsymphony automatic purification system or RNeasy Plus Mini kit, according to manufacturer's instructions (Qiagen). Total RNA was used for reverse transcription with the iScript cDNA synthesis kit (Biorad) and Px2 Thermal Cycler (Thermo Scientific). To analyze gene expression, PCR reactions were performed in duplicate using 1/25-th of the cDNA per reaction and the QuantiTect Primer Assay and Quantitest SYBR Green master mix (Qiagen). qPCR was performed using the Rotor-Gene Q (Qiagen) 5 min at 95° C., 5 s at 92° C., and 20 s at 60° C. for 37 cycles followed by melt to check the specificity of the amplicons from 50 to 99° C. raising by 1° C. each step. Relative quantification was performed against a standard curve and quantified values were normalized against the input determined by PPIG. The primers used for the analysis are listed in Supplementary Table S1. […]

Test [2] deals with hPSC-NSCs. The experiment in a line: Percentage of TH positive cells produced by chemical treatment. It counts as cell-based, human. As to conditions: chemical treatment 2.5 μM for two weeks. As for the experimental part: as §1, §2
[3] abbreviates: hPSC-NSCs primed 7 days with Purmorphamine and FGF8, small molecule 2.5 μM for two weeks, read-out: DDC (AADC) expression by RT-PCR.
Setting [4] is: hPSC-NSCs primed 7 days with Purmorphamine and FGF8, small molecule 2.5 μM for two weeks, read-out: EN1 expression by RT-PCR.
[5] abbreviates: hPSC-NSCs primed 7 days with Purmorphamine and FGF8, small molecule 2.5 μM for two weeks, read-out: KCNJ6 expression by RT-PCR.
Where [6] appears, read: hPSC-NSCs primed 7 days with Purmorphamine and FGF8, small molecule 2.5 μM for two weeks, read-out: MAP2 expression by RT-PCR.
[7] abbreviates: hPSC-NSCs primed 7 days with Purmorphamine and FGF8, small molecule 2.5 μM for two weeks, read-out: NR4A2 (NURR1) expression by RT-PCR.
The mark [8] stands for this setting: hPSC-NSCs primed 7 days with Purmorphamine and FGF8, small molecule 2.5 μM for two weeks, read-out: TH1 expression by RT-PCR.
Where [9] appears, read: hPSC-NSCs primed 7 days with Purmorphamine and FGF8, small molecule 2.5 μM for two weeks, read-out: Tubb3 expression by RT-PCR.
[10] abbreviates: read-out: SLC6A3 (DAT) expression by RT-PCR.
The mark [11] stands for this setting: hPSC-NSCs primed 7 days with Purmorphamine and FGF8, small molecule 2.5 μM for two weeks, read-out: LMX1B expression by RT-PCR.
Where [12] appears, read: hPSC-NSCs primed 7 days with Purmorphamine and FGF8, small molecule 2.5 μM for two weeks, read-out: Pax2 expression by RT-PCR.
Setting [13] is: hPSC-NSCs primed 7 days with Purmorphamine and FGF8, small molecule 2.5 μM for two weeks.

Regarding `CN(C)CCCSC(=N)N` [Dimaprit dihydrochloride], the fold induction at 2.5 µM in test [1] (setting [3]) was 31.9; in test [1] (setting [4]) it was 15.5; in test [1] (setting [5]), 0.16; in test [1] (setting [6]), 12.4; in test [1] (setting [7]) it was 1.87; in test [1] (hPSC-NSCs primed 7 days with Purmorphamine and FGF8, small molecule 2.5 μM for two weeks, read-out: PITX3 expression by RT-PCR), 0.45. Further, the fold induction at 2.5 µM in test [1] (setting [8]) came to 9.02; in test [1] (setting [9]), 9.62. In test [2], the “percentage of TH positive cells” value was found to be 18%.

`c1cc(Cc2cnc[nH]2)ccn1` [Immethridine dihydrobromide]: the fold induction at 2.5 µM in test [1] (setting [10]) worked out at 33.6; in test [1] (setting [3]), 28.2; in test [1] (setting [4]), 11.8; in test [1] (setting [5]) it was 0.22; in test [1] (setting [11]), 7.66; in test [1] (setting [6]) it was 12.7. The fold induction at 2.5 µM amounted to 0.52 in test [1] (setting [7]), 41.2 in test [1] (setting [12]), 9.72 in test [1] (setting [8]) and 10.6 in test [1] (setting [9]). In addition, the “percentage of TH positive cells” value in test [2] is 21%.

Regarding `O=C1Cc2c([nH]c3ccc(Br)cc23)-c2ccccc2N1` [Kenpaullone], the fold induction at 2.5 µM was 108 in test [1] (setting [10]); 11.1 in test [1] (setting [3]); 11 in test [1] (setting [4]); 0.12 in test [1] (setting [5]); 8.17 in test [1] (setting [6]); 0.05 in test [1] (setting [7]). Also, the fold induction at 2.5 µM in test [1] (setting [8]) is 2.15; in test [1] (setting [9]), 9.61. Also, the “percentage of TH positive cells” value in test [2] turned out to be 33%.

`O=C(O)c1cc(=O)c2ccccc2[nH]1` [Kynurenic acid]: the fold induction at 2.5 µM in test [1] (setting [3]) is 37.5; in test [1] (setting [4]) it was 9.25; in test [1] (setting [5]), 0.07; in test [1] (setting [11]) it was 6.36; in test [1] (setting [6]), 9.12; in test [1] (setting [7]) it was 0.27. Besides, the fold induction at 2.5 µM was determined as 1.16 in test [1] (setting [12]); 3.41 in test [1] (hPSC-NSCs primed 7 days with Purmorphamine and FGF8, small molecule 2.5 μM for two weeks, read-out: SLC6A3 (DAT) expression by RT-PCR); 16.8 in test [1] (setting [8]); 6.43 in test [1] (setting [9]). For the same compound, the “percentage of TH positive cells” value in test [2] came to 19%.

On to `Cl.N=C(N)NC(=N)Nc1cccc(Cl)c1` [m-Chlorophenylbiguanide hydrochloride], for which, in test [1] (setting [13]), the “DDC (AADC) expression by RT-PCR” value stood at 69.41, the “EN1 expression by RT-PCR” value was 7.96, the “KCNJ6 (GRK2) expression by RT-PCR” value amounted to 1.65 and the “LMX1B expression by RT-PCR” value worked out at 3.73. For the same compound, in test [1] (setting [13]), the “MAP2 expression by RT-PCR” value was found to be 9.6, the “NR4A2 (NURR1) expression by RT-PCR” value is 5.51, the “Pax2 expression by RT-PCR” value is 0.28 and the “SLC6A3 (DAT) expression by RT-PCR” value is 1.53. In test [1] (setting [13]), the “TH1 expression by RT-PCR” value was determined as 6.67 and the “Tubb3 expression by RT-PCR” value amounted to 4.97.

Take `O=C(O)/C=C/CO` [trans-4-Hydroxycrotonic acid]: the fold induction at 2.5 µM worked out at 6.11 in test [1] (setting [10]); 69.7 in test [1] (setting [3]); 12.7 in test [1] (setting [4]); 0.22 in test [1] (setting [5]); 12.4 in test [1] (setting [6]); 4.49 in test [1] (setting [7]). Besides, the values for the fold induction at 2.5 µM in test [1] (setting [8]) and in test [1] (setting [9]) were 13.2 and 10.8, respectively.

Regarding AM580, in test [1] (setting [13]), the “DDC (AADC) expression by RT-PCR” value came out at 81.43, the “EN1 expression by RT-PCR” value came to 12.94, the “KCNJ6 (GRK2) expression by RT-PCR” value amounted to 2.73 and the “LMX1B expression by RT-PCR” value turned out to be 2.16. In addition, in test [1] (setting [13]), the “MAP2 expression by RT-PCR” value was 8.55, the “NR4A2 (NURR1) expression by RT-PCR” value worked out at 7.11, the “Pax2 expression by RT-PCR” value is recorded as 0.1 and the “SLC6A3 (DAT) expression by RT-PCR” value worked out at 0.66. In addition, in test [1] (setting [13]), the “TH1 expression by RT-PCR” value came out at 5.28 and the “Tubb3 expression by RT-PCR” value was determined as 4.58.
